Article PMC4893628, “Chalcone-based Selective Inhibitors of a C4 Plant Key Enzyme as Novel Potential Herbicides” (Scientific Reports, 2016)
Read-outs that look alike come from different tables or passages of the source.

Assays:
Format in all cases: cell-based
[1] = tested on: Pseudomonas putida KT2440; experiment: Bacterial growth in microscale cultivation, P. putida; settings: relative to control; for activity at 0.3 µM / activity at 3 µM / activity at 30 µM: Pseudomonas putida
Method in brief: (§1)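 Inhibitors in DMSO were added to the medium, at a maximum of 400 μM for trans-chalcone and 100 μM for 2'-hydroxychalcone. Cultures were seeded at OD600 0.5, or 0.25 for B. subtilis, and growth was followed as 620 nm backscatter in a BioLector at 1200 rpm. Final backscatter, growth rate and lag phase were compared with DMSO controls.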

[2] = tested on: Escherichia coli K-12 MG1655; experiment: Bacterial growth in microscale cultivation, E. coli; settings: relative to control; for activity at 0.3 µM / activity at 3 µM / activity at 30 µM: Escherichia coli
Method in brief: as §1

Bacillus subtilis 168 = experiment: Bacterial growth in microscale cultivation, B. subtilis; settings: relative to control
Method in brief: as §1

[3] = tested on: Corynebacterium glutamicum ATCC13032; experiment: Bacterial growth in microscale cultivation, C. glutamicum; settings: relative to control; for activity at 0.3 µM / activity at 3 µM / activity at 30 µM: Corynebacterium glutamicum
Method in brief: as §1

Q: For `O=C(/C=C/c1ccc(O)c(O)c1)c1c(O)cc(O)cc1O` [Compound 11, 2′,4′,6′,3,4-Pentahydroxy-chalcone], which activity at 0.3 µM ([1]; KT2440, complex medium, 0.3 µM, read-out: Final Backscatter) is on record?
A: 92.6%

Q: What about the activity at 0.3 µM ([1]; KT2440, complex medium, 0.3 µM, read-out: Growth rate) of the same molecule?
A: 108%

Q: And the activity at 3 µM ([1]; KT2440, complex medium, 3 µM, read-out: Final Backscatter)?
A: 96.8%

Q: And the activity at 3 µM ([1]; KT2440, complex medium, 3 µM, read-out: Growth rate)?
A: 106%

Q: What about the activity at 30 µM ([1]; KT2440, complex medium, 30 µM, read-out: Final Backscatter) of the same molecule?
A: 92.5%

Q: And the activity at 30 µM ([1]; KT2440, complex medium, 30 µM, read-out: Growth rate)?
A: 105%

Q: What about the activity at 0.3 µM ([1]; KT2440, minimal medium, 0.3 µM, read-out: Final Backscatter) of the same molecule?
A: 93.9%

Q: What about the activity at 0.3 µM ([1]; KT2440, minimal medium, 0.3 µM, read-out: Growth rate) of the same molecule?
A: 96.8%

Q: What about the activity at 3 µM ([1]; KT2440, minimal medium, 3 µM, read-out: Final Backscatter) of the same molecule?
A: 94.9%

Q: What about the activity at 3 µM ([1]; KT2440, minimal medium, 3 µM, read-out: Growth rate) of the same molecule?
A: 98.7%

Q: And the activity at 30 µM ([1]; KT2440, minimal medium, 30 µM, read-out: Final Backscatter)?
A: 99%

Q: And the activity at 30 µM ([1]; KT2440, minimal medium, 30 µM, read-out: Growth rate)?
A: 95.2%

Q: What about the “Lag Phase” value ([1]; complex medium, 0.3 µM) of the same molecule?
A: 95,5%

Q: What about the “Lag Phase” value ([1]; complex medium, 3 µM) of the same molecule?
A: 97,5%

Q: What about the “Lag Phase” value ([1]; complex medium, 30 µM) of the same molecule?
A: 97,0%

Q: What about the “Lag Phase” value ([1]; minimal medium, 0.3 µM) of the same molecule?
A: 99,3%

Q: And the “Lag Phase” value ([1]; minimal medium, 3 µM)?
A: 98,9%

Q: What about the “Lag Phase” value ([1]; minimal medium, 30 µM) of the same molecule?
A: 98,9%

Q: What about the activity at 0.3 µM ([2]; MG1655, complex medium, 0.3 µM, read-out: Final Backscatter) of the same molecule?
A: 98%

Q: And the activity at 0.3 µM ([2]; MG1655, complex medium, 0.3 µM, read-out: Growth rate)?
A: 104%

Q: What about the activity at 3 µM ([2]; MG1655, complex medium, 3 µM, read-out: Final Backscatter) of the same molecule?
A: 98.1%

Q: And the activity at 3 µM ([2]; MG1655, complex medium, 3 µM, read-out: Growth rate)?
A: 106%

Q: What about the activity at 30 µM ([2]; MG1655, complex medium, 30 µM, read-out: Final Backscatter) of the same molecule?
A: 96.9%

Q: What about the activity at 30 µM ([2]; MG1655, complex medium, 30 µM, read-out: Growth rate) of the same molecule?
A: 104%

Q: And the activity at 0.3 µM ([2]; MG1655, minimal medium, 0.3 µM, read-out: Final Backscatter)?
A: 98%

Q: What about the activity at 0.3 µM ([2]; MG1655, minimal medium, 0.3 µM, read-out: Growth rate) of the same molecule?
A: 107%

Q: And the activity at 3 µM ([2]; MG1655, minimal medium, 3 µM, read-out: Final Backscatter)?
A: 98.7%

Q: And the activity at 3 µM ([2]; MG1655, minimal medium, 3 µM, read-out: Growth rate)?
A: 109%

Q: What about the activity at 30 µM ([2]; MG1655, minimal medium, 30 µM, read-out: Final Backscatter) of the same molecule?
A: 97.9%

Q: What about the activity at 30 µM ([2]; MG1655, minimal medium, 30 µM, read-out: Growth rate) of the same molecule?
A: 107%

Q: And the “Lag Phase” value ([2]; complex medium, 0.3 µM)?
A: 107,1%

Q: And the “Lag Phase” value ([2]; complex medium, 3 µM)?
A: 107,1%

Q: And the “Lag Phase” value ([2]; complex medium, 30 µM)?
A: 107,1%

Q: What about the “Lag Phase” value ([2]; minimal medium, 0.3 µM) of the same molecule?
A: 103,4%

Q: And the “Lag Phase” value ([2]; minimal medium, 3 µM)?
A: 101,7%

Q: What about the “Lag Phase” value ([2]; minimal medium, 30 µM) of the same molecule?
A: 103,4%

Q: What about the activity at 0.3 µM (Bacillus subtilis 168; Bacillus subtilis, 168, complex medium, 0.3 µM, read-out: Final Backscatter) of the same molecule?
A: 97.4%

Q: What about the activity at 0.3 µM (Bacillus subtilis 168; Bacillus subtilis, 168, complex medium, 0.3 µM, read-out: Growth rate) of the same molecule?
A: 106%

Q: And the activity at 3 µM (Bacillus subtilis 168; Bacillus subtilis, 168, complex medium, 3 µM, read-out: Final Backscatter)?
A: 96.5%

Q: What about the activity at 3 µM (Bacillus subtilis 168; Bacillus subtilis, 168, complex medium, 3 µM, read-out: Growth rate) of the same molecule?
A: 106%

Q: And the activity at 30 µM (Bacillus subtilis 168; Bacillus subtilis, 168, complex medium, 30 µM, read-out: Final Backscatter)?
A: 97.1%

Q: What about the activity at 30 µM (Bacillus subtilis 168; Bacillus subtilis, 168, complex medium, 30 µM, read-out: Growth rate) of the same molecule?
A: 97.8%

Q: What about the activity at 0.3 µM (Bacillus subtilis 168; Bacillus subtilis, 168, minimal medium, 0.3 µM, read-out: Final Backscatter) of the same molecule?
A: 97.2%

Q: What about the activity at 0.3 µM (Bacillus subtilis 168; Bacillus subtilis, 168, minimal medium, 0.3 µM, read-out: Growth rate) of the same molecule?
A: 114%

Q: What about the activity at 3 µM (Bacillus subtilis 168; Bacillus subtilis, 168, minimal medium, 3 µM, read-out: Final Backscatter) of the same molecule?
A: 98.7%

Q: And the activity at 3 µM (Bacillus subtilis 168; Bacillus subtilis, 168, minimal medium, 3 µM, read-out: Growth rate)?
A: 107%

Q: And the activity at 30 µM (Bacillus subtilis 168; Bacillus subtilis, 168, minimal medium, 30 µM, read-out: Final Backscatter)?
A: 103%

Q: What about the activity at 30 µM (Bacillus subtilis 168; Bacillus subtilis, 168, minimal medium, 30 µM, read-out: Growth rate) of the same molecule?
A: 103%

Q: What about the “Lag Phase” value (Bacillus subtilis 168; complex medium, 0.3 µM) of the same molecule?
A: 100,0%

Q: And the “Lag Phase” value (Bacillus subtilis 168; complex medium, 3 µM)?
A: 100,0%

Q: And the “Lag Phase” value (Bacillus subtilis 168; complex medium, 30 µM)?
A: 100,0%

Q: And the “Lag Phase” value (Bacillus subtilis 168; minimal medium, 0.3 µM)?
A: 100,0%

Q: What about the “Lag Phase” value (Bacillus subtilis 168; minimal medium, 3 µM) of the same molecule?
A: 101,1%

Q: What about the “Lag Phase” value (Bacillus subtilis 168; minimal medium, 30 µM) of the same molecule?
A: 100,0%

Q: And the activity at 0.3 µM ([3]; ATCC13032, complex medium, 0.3 µM, read-out: Final Backscatter)?
A: 99.6%

Q: What about the activity at 0.3 µM ([3]; ATCC13032, complex medium, 0.3 µM, read-out: Growth rate) of the same molecule?
A: 94.6%

Q: And the activity at 3 µM ([3]; ATCC13032, complex medium, 3 µM, read-out: Final Backscatter)?
A: 103%

Q: What about the activity at 3 µM ([3]; ATCC13032, complex medium, 3 µM, read-out: Growth rate) of the same molecule?
A: 104%

Q: What about the activity at 30 µM ([3]; ATCC13032, complex medium, 30 µM, read-out: Final Backscatter) of the same molecule?
A: 103%

Q: And the activity at 30 µM ([3]; ATCC13032, complex medium, 30 µM, read-out: Growth rate)?
A: 95.3%

Q: And the activity at 0.3 µM ([3]; ATCC13032, minimal medium, 0.3 µM, read-out: Final Backscatter)?
A: 100%

Q: What about the activity at 0.3 µM ([3]; ATCC13032, minimal medium, 0.3 µM, read-out: Growth rate) of the same molecule?
A: 104%

Q: What about the activity at 3 µM ([3]; ATCC13032, minimal medium, 3 µM, read-out: Final Backscatter) of the same molecule?
A: 95.1%

Q: And the activity at 3 µM ([3]; ATCC13032, minimal medium, 3 µM, read-out: Growth rate)?
A: 105%

Q: What about the activity at 30 µM ([3]; ATCC13032, minimal medium, 30 µM, read-out: Final Backscatter) of the same molecule?
A: 96.2%

Q: And the activity at 30 µM ([3]; ATCC13032, minimal medium, 30 µM, read-out: Growth rate)?
A: 104%

Q: What about the “Lag Phase” value ([3]; complex medium, 0.3 µM) of the same molecule?
A: 97,0%

Q: What about the “Lag Phase” value ([3]; complex medium, 3 µM) of the same molecule?
A: 97,0%

Q: And the “Lag Phase” value ([3]; complex medium, 30 µM)?
A: 98,5%

Q: What about the “Lag Phase” value ([3]; minimal medium, 0.3 µM) of the same molecule?
A: 99,3%

Q: What about the “Lag Phase” value ([3]; minimal medium, 3 µM) of the same molecule?
A: 98,5%

Q: And the “Lag Phase” value ([3]; minimal medium, 30 µM)?
A: 98,5%
